According to ChEMBL document CHEMBL5625223 (Eur J Med Chem, 2023):

Key:
[1] = biological target: Adenosine receptor A2a (Homo sapiens) (UniProt P29274); assay: Displacement of […] from human A2AR expressed in HEK cells at 10 uM relative to control; assay type: cell-based
Adenosine receptor A1 = biological target: T1, Adenosine receptor A1 (Homo sapiens, UniProt P30542); assay: Displacement of […] from human A1AR expressed in Flp-In-T-REx-293 cells assessed as inhibition constant; assay type: cell-based
T1 sequence (P30542 whole entry): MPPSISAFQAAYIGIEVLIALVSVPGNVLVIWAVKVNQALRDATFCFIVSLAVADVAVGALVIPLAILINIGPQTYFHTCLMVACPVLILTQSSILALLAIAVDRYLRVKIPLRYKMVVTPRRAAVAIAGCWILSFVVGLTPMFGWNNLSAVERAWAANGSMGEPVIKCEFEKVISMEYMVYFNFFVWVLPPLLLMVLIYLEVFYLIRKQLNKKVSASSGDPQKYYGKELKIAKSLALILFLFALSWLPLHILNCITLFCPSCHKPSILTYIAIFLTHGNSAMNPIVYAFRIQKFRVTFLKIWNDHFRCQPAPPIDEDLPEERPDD

Mu-type opioid receptor = Mu-type opioid receptor (Homo sapiens, UniProt P35372); assay: Binding affinity to MOR (unknown origin) assessed as inhibition constant
Sequence of Mu-type opioid receptor (P35372 whole entry): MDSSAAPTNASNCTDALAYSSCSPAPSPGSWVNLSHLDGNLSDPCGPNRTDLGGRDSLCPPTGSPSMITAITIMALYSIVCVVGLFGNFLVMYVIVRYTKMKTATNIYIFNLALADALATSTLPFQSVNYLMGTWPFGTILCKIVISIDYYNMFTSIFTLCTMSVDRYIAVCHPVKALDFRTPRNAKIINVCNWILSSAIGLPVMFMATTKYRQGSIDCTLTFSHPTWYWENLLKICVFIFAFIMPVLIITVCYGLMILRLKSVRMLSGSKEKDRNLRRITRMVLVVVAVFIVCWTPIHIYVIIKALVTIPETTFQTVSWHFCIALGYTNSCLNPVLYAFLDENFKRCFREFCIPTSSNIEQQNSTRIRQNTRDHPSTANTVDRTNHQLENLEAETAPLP

[2] = biological target: T2, 5-hydroxytryptamine receptor 2A (Homo sapiens, UniProt P28223); assay: Displacement of [3H]ketanserin from human 5-HT2A receptor expressed in HEK293 cells at 10 uM incubated for 1 hr; assay type: cell-based
T2 sequence (P28223 whole entry): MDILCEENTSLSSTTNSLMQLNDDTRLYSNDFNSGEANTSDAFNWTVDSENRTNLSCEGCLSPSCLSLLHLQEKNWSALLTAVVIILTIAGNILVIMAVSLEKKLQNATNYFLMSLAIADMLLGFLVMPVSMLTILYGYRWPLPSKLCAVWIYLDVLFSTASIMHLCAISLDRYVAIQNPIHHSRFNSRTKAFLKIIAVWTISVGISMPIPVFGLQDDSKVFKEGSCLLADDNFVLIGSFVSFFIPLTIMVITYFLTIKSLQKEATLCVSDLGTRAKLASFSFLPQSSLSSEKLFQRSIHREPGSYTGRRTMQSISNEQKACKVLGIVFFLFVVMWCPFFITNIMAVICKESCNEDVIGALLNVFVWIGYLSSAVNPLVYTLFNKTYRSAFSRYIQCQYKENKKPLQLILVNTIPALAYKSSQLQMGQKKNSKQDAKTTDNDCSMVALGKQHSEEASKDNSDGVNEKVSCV

[3] = biological target: 5-hydroxytryptamine receptor 1D (Homo sapiens, UniProt P28221); assay: Binding affinity to 5HT1D receptor (unknown origin) assessed as inhibition constant
Sequence of 5-hydroxytryptamine receptor 1D (P28221 whole entry): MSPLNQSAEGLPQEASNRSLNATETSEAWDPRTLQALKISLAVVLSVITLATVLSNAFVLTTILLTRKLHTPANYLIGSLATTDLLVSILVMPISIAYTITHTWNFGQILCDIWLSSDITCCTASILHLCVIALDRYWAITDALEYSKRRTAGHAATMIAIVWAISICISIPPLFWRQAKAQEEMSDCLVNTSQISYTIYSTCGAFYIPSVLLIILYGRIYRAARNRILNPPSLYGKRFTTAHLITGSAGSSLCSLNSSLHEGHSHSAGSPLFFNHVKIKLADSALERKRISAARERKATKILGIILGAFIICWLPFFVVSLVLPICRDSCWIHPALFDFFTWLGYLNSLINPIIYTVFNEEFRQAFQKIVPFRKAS

[4] = biological target: T3, Alpha-2C adrenergic receptor (Homo sapiens, UniProt P18825); assay: Binding affinity to alpha2C receptor (unknown origin) assessed as inhibition constant
T3 sequence (P18825 whole entry): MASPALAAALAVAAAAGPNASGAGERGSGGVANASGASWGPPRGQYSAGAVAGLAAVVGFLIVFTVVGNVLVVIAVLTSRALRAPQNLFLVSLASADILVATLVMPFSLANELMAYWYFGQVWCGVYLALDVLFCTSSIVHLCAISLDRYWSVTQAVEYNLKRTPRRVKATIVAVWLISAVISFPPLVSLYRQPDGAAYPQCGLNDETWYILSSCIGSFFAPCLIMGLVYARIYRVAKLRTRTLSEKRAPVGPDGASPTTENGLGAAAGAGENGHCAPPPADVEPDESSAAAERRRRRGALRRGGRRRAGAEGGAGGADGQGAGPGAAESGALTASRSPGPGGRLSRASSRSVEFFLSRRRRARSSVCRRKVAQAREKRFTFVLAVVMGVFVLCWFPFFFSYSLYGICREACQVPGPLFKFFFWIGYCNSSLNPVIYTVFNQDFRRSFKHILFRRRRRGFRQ

Adenosine receptor A3 = biological target: T4, Adenosine receptor A3 (Homo sapiens, UniProt P0DMS8); assay: Displacement of […] from human A3AR expressed in HEK cells assessed as inhibition constant; assay type: cell-based
T4 sequence (P0DMS8 whole entry): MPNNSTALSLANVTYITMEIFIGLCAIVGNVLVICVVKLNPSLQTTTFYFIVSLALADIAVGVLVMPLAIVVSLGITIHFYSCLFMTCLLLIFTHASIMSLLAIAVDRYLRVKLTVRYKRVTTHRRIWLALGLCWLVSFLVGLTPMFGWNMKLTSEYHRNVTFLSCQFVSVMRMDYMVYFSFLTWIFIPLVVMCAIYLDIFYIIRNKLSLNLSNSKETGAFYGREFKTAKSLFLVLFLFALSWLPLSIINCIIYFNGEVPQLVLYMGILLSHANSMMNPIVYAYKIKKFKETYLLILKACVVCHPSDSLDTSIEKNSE

[5] = biological target: T5, Alpha-2B adrenergic receptor (Homo sapiens, UniProt P18089); assay: Binding affinity to alpha2B receptor (unknown origin) assessed as inhibition constant
T5 sequence (P18089 whole entry): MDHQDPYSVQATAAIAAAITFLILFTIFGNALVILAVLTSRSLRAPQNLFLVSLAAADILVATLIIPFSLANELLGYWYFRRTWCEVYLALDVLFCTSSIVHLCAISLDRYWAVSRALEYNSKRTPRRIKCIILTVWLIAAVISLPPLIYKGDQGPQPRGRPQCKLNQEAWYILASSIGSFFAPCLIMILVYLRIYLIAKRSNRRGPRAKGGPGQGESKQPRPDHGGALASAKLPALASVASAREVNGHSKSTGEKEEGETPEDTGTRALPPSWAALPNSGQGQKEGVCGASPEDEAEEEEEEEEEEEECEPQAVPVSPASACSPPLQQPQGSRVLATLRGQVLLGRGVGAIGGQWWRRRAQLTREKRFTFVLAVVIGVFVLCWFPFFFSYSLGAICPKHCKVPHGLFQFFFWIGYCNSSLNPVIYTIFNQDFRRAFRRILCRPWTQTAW

[6] = biological target: 5-hydroxytryptamine receptor 2B (Homo sapiens, UniProt P41595); assay: Displacement of [3H]-LSD from human 5-HT2B receptor expressed in HEK cells assessed as inhibition constant incubated for 1 hr; assay type: cell-based
Sequence of 5-hydroxytryptamine receptor 2B (P41595 whole entry): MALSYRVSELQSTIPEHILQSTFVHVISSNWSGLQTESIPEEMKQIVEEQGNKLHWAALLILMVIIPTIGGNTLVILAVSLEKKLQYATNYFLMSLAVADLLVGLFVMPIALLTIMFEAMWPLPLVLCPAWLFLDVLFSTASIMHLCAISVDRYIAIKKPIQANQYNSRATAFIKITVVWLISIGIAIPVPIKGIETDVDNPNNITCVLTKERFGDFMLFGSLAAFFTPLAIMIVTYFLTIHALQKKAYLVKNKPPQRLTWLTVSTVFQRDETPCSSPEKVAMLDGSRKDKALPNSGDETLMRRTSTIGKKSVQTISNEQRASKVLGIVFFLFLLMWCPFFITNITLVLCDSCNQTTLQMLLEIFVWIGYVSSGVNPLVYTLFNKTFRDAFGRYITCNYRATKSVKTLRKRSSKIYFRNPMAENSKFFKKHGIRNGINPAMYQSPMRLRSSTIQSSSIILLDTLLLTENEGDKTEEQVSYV

[7] = biological target: T6, 5-hydroxytryptamine receptor 2C (Homo sapiens) (UniProt P28335); assay: Displacement of [3H]-Mesulergine from human 5-HT2C expressed in Flp-In-T-REx-293 cells at 10 uM incubated for 1 hr relative to control; assay type: cell-based; settings: filed as antagonist
T6 sequence (whole entry): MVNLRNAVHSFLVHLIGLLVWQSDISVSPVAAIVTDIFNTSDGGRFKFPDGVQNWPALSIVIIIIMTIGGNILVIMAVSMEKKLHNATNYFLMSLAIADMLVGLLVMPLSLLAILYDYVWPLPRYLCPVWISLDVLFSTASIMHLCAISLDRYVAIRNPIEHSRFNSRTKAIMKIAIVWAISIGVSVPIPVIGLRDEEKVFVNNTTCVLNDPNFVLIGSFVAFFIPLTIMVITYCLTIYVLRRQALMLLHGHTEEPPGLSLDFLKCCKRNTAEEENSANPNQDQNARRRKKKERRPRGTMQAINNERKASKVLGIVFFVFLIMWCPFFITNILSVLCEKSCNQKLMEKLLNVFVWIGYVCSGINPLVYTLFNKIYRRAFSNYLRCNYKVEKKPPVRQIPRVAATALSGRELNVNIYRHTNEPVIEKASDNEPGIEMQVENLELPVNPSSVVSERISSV

[8] = biological target: Sodium-dependent dopamine transporter (Homo sapiens, UniProt Q01959); assay: Binding affinity to DAT (unknown origin) assessed as inhibition constant
Sequence of Sodium-dependent dopamine transporter (Q01959 whole entry): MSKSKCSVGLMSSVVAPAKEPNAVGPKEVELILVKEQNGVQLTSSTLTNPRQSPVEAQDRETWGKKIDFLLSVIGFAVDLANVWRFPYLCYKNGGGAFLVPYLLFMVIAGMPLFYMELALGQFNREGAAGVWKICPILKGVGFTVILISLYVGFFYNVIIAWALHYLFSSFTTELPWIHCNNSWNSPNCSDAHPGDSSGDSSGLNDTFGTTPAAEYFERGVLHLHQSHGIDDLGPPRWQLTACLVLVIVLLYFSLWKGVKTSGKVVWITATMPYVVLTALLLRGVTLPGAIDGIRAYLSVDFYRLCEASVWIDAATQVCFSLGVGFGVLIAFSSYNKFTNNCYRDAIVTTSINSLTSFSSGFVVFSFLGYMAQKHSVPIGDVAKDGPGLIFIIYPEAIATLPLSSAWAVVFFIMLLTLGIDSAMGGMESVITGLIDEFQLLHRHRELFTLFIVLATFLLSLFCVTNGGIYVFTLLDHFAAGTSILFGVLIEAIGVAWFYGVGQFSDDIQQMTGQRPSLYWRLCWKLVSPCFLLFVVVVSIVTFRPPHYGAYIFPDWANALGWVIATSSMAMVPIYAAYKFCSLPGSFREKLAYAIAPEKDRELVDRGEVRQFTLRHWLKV

[9] = biological target: T2, 5-hydroxytryptamine receptor 2A; assay: Displacement of [3H]ketanserin from human 5-HT2A receptor expressed in HEK293 cells at 10 uM incubated for 1 hr relative to control; assay type: cell-based
Translocator protein = Translocator protein (Homo sapiens, UniProt P30536); assay: Binding affinity to TSPO (unknown origin) assessed as inhibition constant
Sequence of Translocator protein (P30536 whole entry): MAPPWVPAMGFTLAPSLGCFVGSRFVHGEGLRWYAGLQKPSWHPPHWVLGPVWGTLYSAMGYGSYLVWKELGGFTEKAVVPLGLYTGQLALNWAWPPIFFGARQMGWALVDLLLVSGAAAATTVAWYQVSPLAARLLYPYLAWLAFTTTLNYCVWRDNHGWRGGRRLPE

[10] = biological target: T2, 5-hydroxytryptamine receptor 2A; assay: Binding affinity to 5HT2A receptor (unknown origin) at 10 uM relative to control
[11] = biological target: T7, Adenosine receptor A3 (Homo sapiens) (UniProt P0DMS8); assay: Displacement of […] from human A3AR expressed in HEK cells at 10 uM relative to control; assay type: cell-based; settings: filed as agonist
T7 sequence (whole entry): T4 sequence (P0DMS8 whole entry)

[12] = biological target: T8, 5-hydroxytryptamine receptor 2C (Homo sapiens, UniProt P28335); assay: Displacement of [3H]-Mesulergine from human 5-HT2C expressed in Flp-In-T-REx-293 cells assessed as inhibition constant incubated for 1 hr; assay type: cell-based; settings: read-out: Ki
T8 sequence (P28335 whole entry): T6 sequence (whole entry)

[13] = biological target: Beta-3 adrenergic receptor (Homo sapiens, UniProt P13945); assay: Binding affinity to beta3 adrenergic receptor (unknown origin) assessed as inhibition constant
Sequence of Beta-3 adrenergic receptor (P13945 whole entry): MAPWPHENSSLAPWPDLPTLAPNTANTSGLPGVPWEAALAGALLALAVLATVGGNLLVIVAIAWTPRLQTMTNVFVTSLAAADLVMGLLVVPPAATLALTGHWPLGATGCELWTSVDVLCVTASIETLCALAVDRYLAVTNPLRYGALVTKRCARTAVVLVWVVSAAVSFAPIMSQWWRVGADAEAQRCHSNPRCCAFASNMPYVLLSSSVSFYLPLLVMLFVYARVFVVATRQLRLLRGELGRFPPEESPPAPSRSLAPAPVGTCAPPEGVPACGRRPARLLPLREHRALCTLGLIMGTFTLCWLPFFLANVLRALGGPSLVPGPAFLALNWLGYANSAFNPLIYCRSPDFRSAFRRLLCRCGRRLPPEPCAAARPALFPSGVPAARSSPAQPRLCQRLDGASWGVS

D(4) dopamine receptor = biological target: T9, D(4) dopamine receptor (Homo sapiens, UniProt P21917); assay: Binding affinity to dopamine D4 receptor (unknown origin) assessed as inhibition constant
T9 sequence (P21917 whole entry): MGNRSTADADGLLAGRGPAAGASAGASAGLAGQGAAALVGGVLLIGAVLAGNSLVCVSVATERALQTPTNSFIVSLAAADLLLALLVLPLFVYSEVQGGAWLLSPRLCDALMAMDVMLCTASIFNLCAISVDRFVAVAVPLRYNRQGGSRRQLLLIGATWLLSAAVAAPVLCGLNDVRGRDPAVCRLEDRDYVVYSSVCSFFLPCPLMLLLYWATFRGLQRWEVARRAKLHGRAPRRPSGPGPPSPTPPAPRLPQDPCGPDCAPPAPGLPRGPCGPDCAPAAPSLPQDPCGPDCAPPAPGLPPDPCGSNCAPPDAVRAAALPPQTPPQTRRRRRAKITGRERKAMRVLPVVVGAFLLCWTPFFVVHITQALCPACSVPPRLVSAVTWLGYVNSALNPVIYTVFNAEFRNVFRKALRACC

Sequence of Adenosine receptor A2a (Homo sapiens) (P29274 whole entry): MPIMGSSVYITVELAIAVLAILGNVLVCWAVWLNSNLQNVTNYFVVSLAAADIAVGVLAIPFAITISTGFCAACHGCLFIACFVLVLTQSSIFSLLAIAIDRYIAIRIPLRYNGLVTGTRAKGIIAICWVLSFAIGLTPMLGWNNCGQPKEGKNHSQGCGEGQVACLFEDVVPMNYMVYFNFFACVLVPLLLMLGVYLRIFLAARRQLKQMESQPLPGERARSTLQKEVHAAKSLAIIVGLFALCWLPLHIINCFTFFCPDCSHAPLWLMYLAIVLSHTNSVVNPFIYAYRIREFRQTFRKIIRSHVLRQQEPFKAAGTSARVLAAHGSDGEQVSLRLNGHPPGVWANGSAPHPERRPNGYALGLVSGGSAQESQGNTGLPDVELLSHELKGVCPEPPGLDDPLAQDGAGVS

| SMILES | Activity [1] [%] | Ki (Adenosine receptor A1) [µM] | Ki [2] [µM] | Ki [3] [µM] | Ki [4] [µM] | Ki (Adenosine receptor A3) [µM] | Ki [6] [µM] | Activity [7] [%] | Activity [9] [%] | Ki [13] [µM] | also measured |
| --- | --- | --- | --- | --- | --- | --- | --- | --- | --- | --- | --- |
| O[C@H]1[C@H](n2cnc3c(NC(C4CCCC4)C4CCCC4)nc(Cl)nc32)[C@H]2C[C@@]2(CCl)[C@H]1O | 36 | 0.529 | 6.47 | 6.5 | 2.5 | 8.26 |  |  |  |  | Ki (Mu-type opioid receptor): 5.7 µM |
| CSC[C@@]12C[C@@H]1[C@@H](n1cnc3c(NC(C4CCCC4)C4CCCC4)nc(SC)nc31)[C@H](O)[C@@H]2O | -60 |  | 9.3 |  |  | 6.62 | 0.222 | 49 |  |  | Ki [5]: 1.2 µM |
| OC[C@@]12C[C@@H]1[C@@H](n1cnc3c(NC(C4CCCC4)C4CCCC4)nc(Cl)nc31)[C@H](O)[C@@H]2O | -12 |  |  |  |  |  |  |  | 1 |  | Ki [8]: 3.9 µM |
| OC[C@@]12C[C@@H]1[C@@H](n1cnc3c(NC(C4CCC4)C4CCC4)nc(I)nc31)[C@H](O)[C@@H]2O | 37 | 0.204 |  |  |  | 34.3 |  |  |  |  | Ki (Translocator protein): 2.1 µM; Activity [10]: 16% |
| COc1ccc(SC[C@@]23C[C@@H]2[C@@H](n2cnc4c(NC(C5CCCC5)C5CCCC5)nc(Cl)nc42)[C@H](O)[C@@H]3O)cc1OC | 19 |  |  |  |  |  | 0.256 |  | 25 | 2.1 | Activity [11]: 78%; Ki [12]: 0.368 µM |
| CCSC[C@@]12C[C@@H]1[C@@H](n1cnc3c(NC(C4CCCC4)C4CCCC4)nc(Cl)nc31)[C@H](O)[C@@H]2O | -48 |  |  | 5.2 | 2.1 | 6.28 |  | 47 | 38 | 1.5 | Ki (D(4) dopamine receptor): 3.6 µM |
